# Results from ChEMBL document CHEMBL4602659, “β,β-Dimethylacrylshikonin Induces Apoptosis in Melanoma Cell Lines by NOXA Upregulation” (J Nat Prod, 2020).
# Calls of active or inactive are those of the source. The rule behind the calls is not given here.
# Tests used:
# MUGMel1 [1] = test: Cytotoxicity against human MUGMel1 cells assessed as reduction in cell viability after 48 hrs by EZ4U reagent based spectrophotometric method; assay type: functional; conditions: MUGMel1, 48 h
# SBcl2 [2] = test: Cytotoxicity against human SBcl2 cells harboring NRAS Q61I mutant assessed as reduction in cell viability after 72 hrs by EZ4U reagent based spectrophotometric method; assay type: functional; conditions: SBcl2, 72 h
# WM793 [3] = test: Cytotoxicity against human WM793 cells harboring BRAF V600E mutant assessed as reduction in cell viability after 24 hrs by EZ4U reagent based spectrophotometric method; assay type: functional; conditions: WM793, 24 h
# WM793 [4] = test: Cytotoxicity against human WM793 cells harboring BRAF V600E mutant assessed as reduction in cell viability after 48 hrs by EZ4U reagent based spectrophotometric method; assay type: functional; conditions: WM793, 48 h
# MUGMel1 [5] = test: Induction of apoptosis in human MUGMel1 cells assessed as late apoptotic cells at IC50 concentration after 6 hrs by Annexin V/SYTOX Green based flow cytometric analysis (reference value: 1.04%); assay type: functional
# MUGMel2 [6] = test: Induction of apoptosis in human MUGMel2 cells assessed as early apoptotic cells at IC50 concentration after 6 hrs by Annexin V/SYTOX Green based flow cytometric analysis (reference value: 2.89%); assay type: functional
# SBcl2 [7] = test: Induction of apoptosis in human SBcl2 cells assessed as necrotic cells at IC50 concentration after 6 hrs by Annexin V/SYTOX Green based flow cytometric analysis (reference value: 0.17%); assay type: functional
# WM164 [8] = test: Induction of apoptosis in human WM164 cells assessed as early apoptotic cells at IC50 concentration after 6 hrs by Annexin V/SYTOX Green based flow cytometric analysis (reference value: 3.01%); assay type: functional
# MUGMel1 [9] = test: Induction of apoptosis in human MUGMel1 cells assessed as viable cells at IC50 concentration after 24 hrs by Annexin V/SYTOX Green based flow cytometric analysis (reference value: 95.13%); assay type: functional
# MUGMel1 [10] = test: Induction of apoptosis in human MUGMel1 cells assessed as necrotic cells at IC50 concentration after 24 hrs by Annexin V/SYTOX Green based flow cytometric analysis (reference value: 0.42%); assay type: functional
# MUGMel2 [11] = test: Induction of apoptosis in human MUGMel2 cells assessed as early apoptotic cells at IC50 concentration after 24 hrs by Annexin V/SYTOX Green based flow cytometric analysis (reference value: 3.31%); assay type: functional
# MUGMel2 [12] = test: Induction of apoptosis in human MUGMel2 cells assessed as necrotic cells at IC50 concentration after 24 hrs by Annexin V/SYTOX Green based flow cytometric analysis (reference value: 1.1%); assay type: functional
# WM164 [13] = test: Induction of apoptosis in human WM164 cells assessed as early apoptotic cells at IC50 concentration after 24 hrs by Annexin V/SYTOX Green based flow cytometric analysis (reference value: 2.72%); assay type: functional
# WM164 [14] = test: Induction of apoptosis in human WM164 cells assessed as late apoptotic cells at IC50 concentration after 24 hrs by Annexin V/SYTOX Green based flow cytometric analysis (reference value: 1.81%); assay type: functional
# WM793 [15] = test: Induction of apoptosis in human WM793 cells assessed as viable cells at IC50 concentration after 24 hrs by Annexin V/SYTOX Green based flow cytometric analysis (reference value: 96.52%); assay type: functional
# WM793 [16] = test: Induction of apoptosis in human WM793 cells assessed as necrotic cells at IC50 concentration after 24 hrs by Annexin V/SYTOX Green based flow cytometric analysis (reference value: 0.17%); assay type: functional
# WM793 [17] = test: Induction of apoptosis in human WM793 cells assessed as increase in caspase -3 activity at IC50 concentration after 24 hrs by Alexa Fluor 647 antibody based flow cytometric analysis; assay type: functional, cell-based
# SBcl2 [18] = test: Induction of apoptosis in human SBcl2 cells assessed as up regulation of PMAIP1 at IC50 concentration after 24 hrs by mRNA sequencing method relative to control; assay type: functional
# WM164 [19] = test: Antitumour activity against human WM164 cells xenografted in NU(NCr)-Foxn1 mouse assessed as increase in necrotic cells at 1 to 4 ug/g administered for three consecutive days with 1 day interval for four cycle by hematoxylin and eosin staining based microscopic analysis; assay type: functional
# SBcl2 [20] = test: Antitumour activity against human SBcl2 cells xenografted in NU(NCr)-Foxn1 mouse assessed as increase in caspase -activity at 2 ug/g administered for three consecutive days with 1 day interval for four cycle by hematoxylin and eosin staining based microscopic analysis; assay type: functional, cell-based
# WM164 [21] = test: Antitumour activity against human WM164 cells xenografted in NU(NCr)-Foxn1 mouse assessed as increase in caspase -activity at 1 to 4 ug/g administered for three consecutive days with 1 day interval for four cycle by hematoxylin and eosin staining based microscopic analysis; assay type: functional, cell-based
# SBcl2 [22] = test: Antitumour activity against human SBcl2 cells xenografted in NU(NCr)-Foxn1 mouse assessed as increase in fibrosis at 2 ug/g administered for three consecutive days with 1 day interval for four cycle by hematoxylin and eosin staining based microscopic analysis; assay type: functional, cell-based
# WM793 [23] = test: Induction of apoptosis in human WM793 cells assessed as up regulation of NOXA protein expression at IC50 concentration after 24 hrs by Western blot analysis; assay type: functional, cell-based
# WM164 [24] = test: Induction of apoptosis in human WM164 cells assessed as up regulation of NOXA protein expression at IC50 concentration after 24 hrs by Western blot analysis; assay type: functional, cell-based
# SBcl2 [25] = test: Induction of apoptosis in human SBcl2 cells assessed as up regulation of NOXA protein expression at IC50 concentration after 24 hrs by Western blot analysis; assay type: functional, cell-based
# WM164 [26] = test: Induction of apoptosis in human WM164 cells assessed as effect on BAX mRNA expression at IC50 concentration after 6 to 24 hrs by RT-qPCR analysis; assay type: functional, cell-based
# WM164 [27] = test: Induction of apoptosis in human WM164 cells assessed as up regulation of NOXA at IC50 concentration after 6 to 24 hrs by RT-qPCR analysis; assay type: functional, cell-based
# SBcl2 [28] = test: Induction of apoptosis in human SBcl2 cells assessed as up regulation of NOXA at IC50 concentration after 6 to 24 hrs by RT-qPCR analysis; assay type: functional, cell-based
# WM164 [29] = test: Induction of apoptosis in human WM164 cells treated with scrambled si-RNA assessed as caspase -activity at IC50 concentration after 24 hrs by Western blot analysis; assay type: functional, cell-based
# SBcl2 [30] = test: Induction of apoptosis in human SBcl2 cells treated with scrambled si-RNA assessed as caspase -activity at IC50 concentration after 24 hrs by Western blot analysis; assay type: functional, cell-based
# WM164 [31] = test: Induction of apoptosis in human WM164 cells assessed as effect on PUMA protein expression at IC50 concentration after 24 hrs by Western blot analysis; assay type: functional, cell-based
# SBcl2 [32] = test: Induction of apoptosis in human SBcl2 cells assessed as effect on BAD protein expression at IC50 concentration after 24 hrs by Western blot analysis; assay type: functional, cell-based
# MUGMel1 [33] = test: Induction of apoptosis in human MUGMel1 cells assessed as effect on PUMA protein expression at IC50 concentration after 24 hrs by Western blot analysis; assay type: functional, cell-based
# WM164 [34] = test: Antitumour activity against human WM164 cells xenografted in NU(NCr)-Foxn1 mouse assessed as increase in fibrosis at 1 to 4 ug/g administered for three consecutive days with 1 day interval for four cycle by hematoxylin and eosin staining based microscopic analysis; assay type: functional, cell-based
smiles,measurement,setting,value
CC(C)=CC[C@@H](OC(=O)C=C(C)C)C1=CC(=O)c2c(O)ccc(O)c2C1=O [DIMETHYLACRYLSHIKONIN],IC50,MUGMel1 [1],1100 nM
same,IC50,SBcl2 [2],1200 nM
same,IC50,WM793 [3],1200 nM
same,IC50,WM793 [4],800 nM
same,Activity,MUGMel1 [5],2.36%
same,Activity,MUGMel2 [6],10.56%
same,Activity,SBcl2 [7],0.06%
same,Activity,WM164 [8],2.47%
same,Activity,MUGMel1 [9],49.48%
same,Activity,MUGMel1 [10],0.15%
same,Activity,MUGMel2 [11],10.92%
same,Activity,MUGMel2 [12],0.16%
same,Activity,WM164 [13],12.85%
same,Activity,WM164 [14],11.6%
same,Activity,WM793 [15],83.29%
same,Activity,WM793 [16],0.22%
same,Activity,WM793 [17],Active
same,fold change (FC),SBcl2 [18],1.37
same,Activity,WM164 [19],60%
same,Activity,SBcl2 [20],Active
same,Activity,WM164 [21],Active
same,Activity,SBcl2 [22],Active
same,Activity,WM793 [23],inactive
same,Activity,WM164 [24],Active
same,Activity,SBcl2 [25],Active
same,Activity,WM164 [26],inactive
same,Activity,WM164 [27],Active
same,Activity,SBcl2 [28],Active
same,Activity,WM164 [29],inactive
same,Activity,SBcl2 [30],inactive
same,Activity,WM164 [31],inactive
same,Activity,SBcl2 [32],inactive
same,Activity,MUGMel1 [33],inactive
same,Activity,WM164 [34],Active
